{
  "source": "patent US10369123B2",
  "about": "“Perk activator for the treatment of neurodegenerative diseases” (DEUTSCHES ZENTRUM FÜR NEURODEGENERATIVE ERKRANKUNGEN E.V. …, priority 2014, dated 2019)",
  "key": {"[1]": {"tested_on": "LUHMES neurons overexpressing 4R-tau", "assay": "MTT assay, LUHMES neurons overexpressing 4R-tau", "format": "cell-based, human", "settings": "lentiviral 4R-tau overexpression 10 days, co-administration of PERK modulator", "experimental": "Nunc™ Nunclon™ Delta 6-well (for protein and mRNA) or 48-well (for cell assays) plates (Thermo Fisher Scientific, Waltham, Mass., USA) were coated with 100 μg/ml poly-L-lysine (Sigma-Aldrich, St. Louis, Mo., USA) and 5 μg/ml fibronectin (Sigma-Aldrich). LUHMES (Lund Human Mesencephalic) cells, derived from human embryonic ventral mesencephalic cells by conditional immortalization (Tet-off v-myc over-expression) were seeded out in a concentration of 130,000 cells/cm^2 to achieve a confluence of 50%. […]\nConcentrated lentiviral particles were titrated by transducing LUHMES cells with different dilutions at 6 hours after initiating differentiation. The lowest dilution at which at least 90% of cells expressed the transgene (as determined by immunohistochemistry of the cells fixed on day 2 post differentiation) was chosen for subsequent experiments. […]\nThiazolyl Blue Tetrazolium […] (Sigma Aldrich) was dissolved in sterile PBS to a concentration of 5 mg/ml. […] 100 μl from each well were transferred to a new 96-well plate and the absorbance was read with the FLUOstar Omega (BMG Labtech) platereader at a wavelength of 590 nm (reference wave length 630 nm). The data was analyzed using the MARS Data Analysis Software (BMG Labtech) and Prism 6."}, "[2]": {"tested_on": "pathological tau species", "assay": "Immunoblot of tau species in P301S mouse brains", "format": "in vivo", "settings": "P301S mice, 2 mg/kg i.p. once daily for 6 weeks from 17 weeks of age, vs saline", "experimental": "For the efficacy trial in the late disease stage (Xu et al. 2014), P301S mice and wild type littermates received once daily i.p. injections of 2 mg/kg CCT020312 or saline from 17 to 22 weeks of age (n=12 for CCT020312 treated P301S mice, n=9 for other groups); they were analyzed with the Rotarod test in the 23rd week of age.\nTwelve hours after the last injection, animals were anesthetized by i.p. injections of pentobarbital at (100 mg/kg) and transcardially perfused with 0.1 M phosphate buffer for 2 min, then fixed for 10 min with 4% paraformaldehyde. Post-fixation of the brain was done in 4% paraformaldehyde at 4° C. for 48 h. Their brains were prepared for histological analysis, as described (Xu et al. 2014). For the immunoblot analysis in P301S mice and wild type mice were sacrificed by cervical dislocation, their brains were frozen on dry ice and stored at −80° C. for Western blot analysis.\nFrontal cortex tissue was dissected from the fresh-frozen sample on dry ice and suspended in 750 μl of T-PER Tissue Protein Extraction Reagent (Thermo Fisher Scientific) and 1× cOmplete Protease Inhibitor Cocktail Tablets (Hoffmann-La Roche) and 1× PhosSTOP Phosphatase Inhibitor Cocktail Tablets (Hoffmann-La Roche). The tissue piece was initially ground with a pestle inside a microcentrifuge tube on ice and then homogenized by sonification with Branson Sonifier 450 Analog (Branson, now Thermo Fisher Scientific) with 10×500 ms bursts at intensity level 3 on ice. […] Protein concentrations were determined using the BCA kit (Thermo Fisher Scientific) by heating the samples at 60° C. for 30 minutes and measuring the absorption on the NanoDrop 2000c spectrophotometer (Thermo Fisher Scientific).\n20 μg of protein (200 μg for pPERK blots) were adjusted to equal concentrations between samples by dilution with M-PER and subsequently heated at 95° C. for 5 minutes with Roti®-Load 1 (Carl Roth). […] Chemiluminescence was detected with the Gel Doc™ XR System (BioRad) and analyzed with the Image Lab™ software (BioRad), followed by graphical and statistical analysis with Prism 6 (GraphPad Software)."}},
  "data": [
    {"molecule": "CCN(CC)CCC(=O)N1N=C(c2c(-c3ccccc3)c3cc(Br)ccc3[nH]c2=O)CC1c1ccc(Br)cc1", "note": "(stereo not shown) [CCT020312, 6-bromo-3-[5-(4-bromo-phenyl)-1-(3-diethylamino-propionyl)-4,5-dihydro-1H-pyrazol-3-yl]-4-phenyl-1H-quinolin-2-one]", "values": [
      {"measurement": "4R-specific toxicity in MTT assay", "setting": "[1]", "value": "reduced significantly"},
      {"measurement": "AT180-immunoreactivity (paired helical filament tau), immunoblot", "setting": "[2]", "value": "decreased"},
      {"measurement": "CP13-immunoreactivity (S202-phosphorylated tau), immunoblot", "setting": "[2]", "value": "decreased"},
      {"measurement": "MC1-immunoreactivity (conformationally changed tau), immunoblot", "setting": "[2]", "value": "decreased"}
    ]}
  ]
}
